These are literature values, as cited in patent US20160174603A1, “Electronic Vapor Liquid Composition and Method of Use” (priority 2014, published 2016).

The target in one data set is acetylcholinesterase (Homo sapiens, UniProt P22303). Particulars: in vitro.
For another data set, the target named is T1, TRPC6 receptor (Homo sapiens, UniProt Q9Y210).
T1 sequence (Q9Y210 1-931): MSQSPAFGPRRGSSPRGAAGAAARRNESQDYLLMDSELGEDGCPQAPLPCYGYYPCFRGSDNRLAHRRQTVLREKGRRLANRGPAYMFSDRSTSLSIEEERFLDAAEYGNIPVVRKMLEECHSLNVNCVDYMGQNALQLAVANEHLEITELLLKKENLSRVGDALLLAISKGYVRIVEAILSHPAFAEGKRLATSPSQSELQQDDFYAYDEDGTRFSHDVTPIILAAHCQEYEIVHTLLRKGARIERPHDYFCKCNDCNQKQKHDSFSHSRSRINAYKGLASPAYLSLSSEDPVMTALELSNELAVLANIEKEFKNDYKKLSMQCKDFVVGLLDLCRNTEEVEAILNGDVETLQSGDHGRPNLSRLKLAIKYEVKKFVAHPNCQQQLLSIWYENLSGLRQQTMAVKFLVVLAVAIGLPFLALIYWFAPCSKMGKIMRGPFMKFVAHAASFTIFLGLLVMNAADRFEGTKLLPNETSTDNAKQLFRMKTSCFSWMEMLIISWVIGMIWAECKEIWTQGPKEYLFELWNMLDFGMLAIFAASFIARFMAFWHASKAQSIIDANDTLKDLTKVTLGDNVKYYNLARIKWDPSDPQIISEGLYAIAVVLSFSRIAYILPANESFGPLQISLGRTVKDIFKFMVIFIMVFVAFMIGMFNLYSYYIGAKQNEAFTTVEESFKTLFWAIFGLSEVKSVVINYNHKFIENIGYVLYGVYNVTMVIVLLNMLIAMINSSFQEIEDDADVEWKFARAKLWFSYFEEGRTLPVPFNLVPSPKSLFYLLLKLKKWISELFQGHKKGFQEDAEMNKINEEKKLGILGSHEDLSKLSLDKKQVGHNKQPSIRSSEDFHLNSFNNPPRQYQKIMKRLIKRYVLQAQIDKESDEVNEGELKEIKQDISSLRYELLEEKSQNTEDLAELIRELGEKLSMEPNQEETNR

Data set [1] addresses norepinephrine transporter (NAT) (Homo sapiens, UniProt P23975). Particulars: both enantiomeric forms.
A further data set addresses T2, MAO-B (Homo sapiens, UniProt P27338).
T2 sequence (P27338 1-520): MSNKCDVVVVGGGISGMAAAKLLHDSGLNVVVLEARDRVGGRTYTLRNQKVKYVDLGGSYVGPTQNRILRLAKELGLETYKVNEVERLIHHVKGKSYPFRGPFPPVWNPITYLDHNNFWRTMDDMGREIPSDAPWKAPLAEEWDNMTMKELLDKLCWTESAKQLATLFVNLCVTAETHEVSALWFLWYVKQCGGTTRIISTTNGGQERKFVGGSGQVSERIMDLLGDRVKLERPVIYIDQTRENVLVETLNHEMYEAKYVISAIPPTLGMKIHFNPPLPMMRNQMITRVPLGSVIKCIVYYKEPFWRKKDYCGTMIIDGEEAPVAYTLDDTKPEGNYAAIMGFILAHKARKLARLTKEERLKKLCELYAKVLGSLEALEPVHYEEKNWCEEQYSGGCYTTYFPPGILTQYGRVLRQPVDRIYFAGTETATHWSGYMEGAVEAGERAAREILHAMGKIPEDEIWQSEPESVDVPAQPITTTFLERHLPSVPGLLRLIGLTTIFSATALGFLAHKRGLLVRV
Particulars: read-out: Ki, reversible MAO-B inhibitor.

For data set [2], the system named is dopamine levels in the nucleus accumbens. As to conditions: rat, in vivo.
For another data set, the system named is adenosine receptor. As to conditions: in vitro.

norepinephrine transporter (NAT), sequence (P23975 whole entry): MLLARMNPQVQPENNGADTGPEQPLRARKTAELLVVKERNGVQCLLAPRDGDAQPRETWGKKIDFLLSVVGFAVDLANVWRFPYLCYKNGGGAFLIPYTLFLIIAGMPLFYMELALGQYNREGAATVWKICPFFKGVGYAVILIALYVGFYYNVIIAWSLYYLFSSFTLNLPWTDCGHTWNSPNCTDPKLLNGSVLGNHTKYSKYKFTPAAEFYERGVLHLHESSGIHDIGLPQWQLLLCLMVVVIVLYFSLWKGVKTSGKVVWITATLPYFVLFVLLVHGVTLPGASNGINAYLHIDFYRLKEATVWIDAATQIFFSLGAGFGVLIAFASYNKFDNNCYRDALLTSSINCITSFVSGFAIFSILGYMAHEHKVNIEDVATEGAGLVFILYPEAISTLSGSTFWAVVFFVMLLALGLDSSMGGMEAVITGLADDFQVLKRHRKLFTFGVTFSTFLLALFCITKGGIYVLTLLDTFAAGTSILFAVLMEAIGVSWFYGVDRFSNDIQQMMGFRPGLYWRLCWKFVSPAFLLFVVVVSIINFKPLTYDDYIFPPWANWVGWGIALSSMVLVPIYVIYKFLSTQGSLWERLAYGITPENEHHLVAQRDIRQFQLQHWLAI
acetylcholinesterase, sequence (P22303 32-614, species assumed): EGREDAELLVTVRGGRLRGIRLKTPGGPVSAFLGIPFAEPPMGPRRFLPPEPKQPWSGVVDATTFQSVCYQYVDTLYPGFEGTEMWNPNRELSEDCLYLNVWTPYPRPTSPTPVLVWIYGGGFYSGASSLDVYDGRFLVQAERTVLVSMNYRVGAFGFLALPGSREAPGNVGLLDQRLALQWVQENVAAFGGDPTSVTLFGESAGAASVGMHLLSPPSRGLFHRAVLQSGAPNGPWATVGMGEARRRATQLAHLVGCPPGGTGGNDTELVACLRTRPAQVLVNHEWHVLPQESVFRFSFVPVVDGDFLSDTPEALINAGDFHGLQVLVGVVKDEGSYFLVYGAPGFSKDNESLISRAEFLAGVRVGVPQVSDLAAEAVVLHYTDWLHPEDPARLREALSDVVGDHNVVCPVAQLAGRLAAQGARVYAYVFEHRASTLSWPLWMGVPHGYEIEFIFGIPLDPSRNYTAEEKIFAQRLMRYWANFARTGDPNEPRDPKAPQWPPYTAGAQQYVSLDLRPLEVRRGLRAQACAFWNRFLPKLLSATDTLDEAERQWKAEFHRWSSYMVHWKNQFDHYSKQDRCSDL

Turning to lactucopicrin, the acetylcholinesterase activity entry on acetylcholinesterase was “acetylcholinesterase inhibitor”.

Consider `CC[C@H]1CN2CC[C@]3(C(=O)Nc4ccccc43)[C@@H]2C[C@@H]1/C(=C\OC)C(=O)OC` [rhynchophylline], for which the calcium channel activity entry in the data set on calcium channel was “calcium channel blocker”. For the same compound, in the data set with NMDA-induced current, the “effect on NMDA-induced current” value is listed as “reduces NMDA-induced current”.

With `CC(C)=CCC[C@]1(C)[C@@H](CC=C(C)C)C[C@@]2(CC=C(C)C)C(=O)[C@]1(C(=O)C(C)C)C(=O)C(CC=C(C)C)=C2O` [Hyperforin], on TRPC6 receptor, the TRPC6 receptor activity entry was “TRPC6 receptor agonists”.

In the case of `CCC(C)C(=O)[C@]12C(=O)[C@](CC=C(C)C)(C[C@H](CC=C(C)C)[C@@]1(C)CCC=C(C)C)C(=O)C(CC=C(C)C)=C2O` (stereo partly shown) [adhyperforin], at TRPC6 receptor, the TRPC6 receptor activity result is on record as “TRPC6 receptor agonists”.

Consider `COC1=CC(=O)O[C@@H](/C=C/c2ccccc2)C1` [Kavain], for which, in [1], the “reuptake of norepinephrine at the transporter (NAT)” value is recorded as “inhibits the reuptake of norepinephrine”.

On to `COc1cc(/C=C/c2ccccc2)oc(=O)c1` [Desmethoxyyangonin], for which, on MAO-B, the Ki (as a rule, a dissociation constant, usually derived from enzyme kinetics or from competition with a known ligand) is 280 nM. The “dopamine levels in the nucleus accumbens” value in [2] is “able to increase dopamine levels”.

In the case of `O=C(O)[C@H]1O[C@@H](Oc2cc3oc(-c4ccccc4)cc(=O)c3c(O)c2O)[C@H](O)[C@@H](O)[C@@H]1O` [Baicalin], the “effects in a rat model of thermal hyperalgesia” value in the data set with thermal hyperalgesia was “anti-inflammatory and analgesic effects”.

With `C=C1C(=O)O[C@@H]2[C@H]3C(CO)=CC(=O)C3=C(C)C[C@@H](O)[C@@H]12` [lactucin], the adenosine receptor activity entry in the data set on adenosine receptor was “adenosine receptor agonist”.
